In patent US12503452B2 (Curza Global, LLC, priority 2019, dated 2025):
Where two headings read alike, the source gives them in different places.

How the values were obtained:
S. aureus (Sa) = test: Broth microdilution minimum inhibitory concentration (MIC); assay type: cell-based; settings: Staphylococcus aureus, S. aureus, read-out: Sa + bicarb MIC
How it was run: (§1)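 MICs were run in triplicate per CLSI microdilution (modified, 8 dilution steps), inoculating 5×10^4 CFU/well prepared from colonies grown at 35±2° C to 0.5 McFarland. Media: CAMHB alone, with 6.25 or 25 mM final sodium bicarbonate, or with 0–50% heat-inactivated human serum.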

P. aeruginosa (Pa) = test: as above; assay type: cell-based; settings: Pseudomonas aeruginosa, P. aeruginosa, read-out: Pa MIC + bicarb
How it was run: as §1

E. coli (Ec) = test: as above; assay type: cell-based; settings: Escherichia coli, E. coli, read-out: E. coli + bicarb MIC
How it was run: as §1

A. baumannii (Ab) = test: as above; assay type: cell-based; settings: Acinetobacter baumannii, A. baumannii, read-out: Ab + bicarb MIC
How it was run: as §1

E. faecalis (Ef) = test: as above; assay type: cell-based; settings: Enterococcus faecalis, E. faecalis, read-out: Ef + bicarb MIC
How it was run: as §1

[1] = test system: E. coli S30 extract (bacterial protein synthesis); test: E. coli S30 extract coupled transcription-translation luciferase assay (inhibition of bacterial protein synthesis); assay type: biochemical; settings: class by IC50 or % inhibition @ 1 μM, read-out: S30 IC50 (μM/% inhib.)
How it was run: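 Luminescent read-out of luciferase made from pBESTluc DNA by E. coli S30 extract after 1 h at 37 °C with compound in an 8-point 2-fold series. Background came from no-DNA reactions. Percent inhibition was calculated against water-only controls.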

[2] = biological target: Rabbit Reticulocyte Lysate (eukaryotic protein synthesis); test: Rabbit reticulocyte lysate luciferase assay (inhibition of eukaryotic protein synthesis); assay type: biochemical; settings: class by IC50 or % inhibition @ 1 μM, read-out: Rabbit reticulocyte IC50 (μM/% inhib.)
How it was run: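 Compounds were tested in 8-point 2-fold dilution series for blocking luciferase synthesis in nuclease-treated rabbit reticulocyte lysate (30° C., 90 minutes). Luminescence read-out, corrected by no-RNA background, was expressed as % inhibition against water-only reactions.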

[3] = growth medium with sodium bicarbonate
[4] = growth medium supplemented with sodium bicarbonate

SMILES	MIC (S. aureus (Sa); [3])	MIC (P. aeruginosa (Pa); [3])	MIC (E. coli (Ec); [3])	MIC (A. baumannii (Ab); [3])	MIC (E. faecalis (Ef); [3])	IC50 [1]	IC50 [2]	MIC (S. aureus (Sa); [4])	MIC (P. aeruginosa (Pa); [4])	MIC (E. coli (Ec); [4])	MIC (A. baumannii (Ab); [4])	MIC (E. faecalis (Ef); [4])
NC1CCCN(CCc2ccc(-n3ccc(NC(=O)N4CC5(CC(N)C5)C4)nc3=O)cc2)CC1 (stereo not drawn) [Compound 193]	< 8 µg/mL	> 32 µg/mL	< 8 µg/mL	> 32 µg/mL	8 to 32 µg/mL	< 0.5 µM	> 1 µM	–	–	–	–	–
CC(C)(N)C(=O)N1CCN(C(=O)Nc2ccn(-c3ccc(CN4CC[C@@H](N)[C@@H](F)C4)cc3)c(=O)n2)CC1 [Compound 209]	> 32 µg/mL	> 32 µg/mL	< 8 µg/mL	> 32 µg/mL	> 32 µg/mL	> 1 µM	> 1 µM	–	–	–	–	–
CCN(Cc1ccc(-n2ccc(NC(=O)N3CCN(C(=O)C(C)(C)N)[C@H](C)C3)nc2=O)cc1)C1CCC(N)CC1 (stereo partly drawn) [Compound 274]	< 8 µg/mL	8 to 32 µg/mL	< 8 µg/mL	< 8 µg/mL	< 8 µg/mL	< 0.5 µM	> 1 µM	–	–	–	–	–
C[C@H](N)C1CCN(Cc2ccc(-n3ccc(NC(=O)N4CCN(C(=O)C(C)(C)N)CC4)nc3=O)cc2)CC1 [Compound 220]	< 8 µg/mL	> 32 µg/mL	< 8 µg/mL	8 to 32 µg/mL	8 to 32 µg/mL	< 0.5 µM	> 1 µM	–	–	–	–	–
CCN(Cc1ccc(-n2ccc(NC(=O)N3CCN(C(=O)C(C)(C)N)CC3)nc2=O)cc1)CC1CC(N)C1 (stereo not drawn) [Compound 128]	–	–	–	–	–	< 0.5 µM	> 1 µM	< 8 µg/mL	8 to 32 µg/mL	< 8 µg/mL	> 32 µg/mL	< 8 µg/mL
CCC(N)C1CCCN(CCc2ccc(-n3ccc(NC(=O)N4CCN(C(=O)C(C)(C)N)CC4)nc3=O)cc2)C1 (stereo not drawn) [Compound 23]	–	–	–	–	–	> 1 µM	> 1 µM	8 to 32 µg/mL	> 32 µg/mL	< 8 µg/mL	> 32 µg/mL	> 32 µg/mL
CCN(C[C@H]1C[C@H](N)C1)C(C)Cc1ccc(-n2ccc(NC(=O)N3CCN(C(=O)C(C)(C)N)CC3)nc2=O)cc1 (stereo partly drawn) [Compound 158]	–	–	–	–	–	< 0.5 µM	> 1 µM	< 8 µg/mL	8 to 32 µg/mL	< 8 µg/mL	> 32 µg/mL	< 8 µg/mL
CC(C)(N)C(=O)N1CCN(C(=O)Nc2ccn(-c3ccc(CCNC4CCCNCC4)cc3)c(=O)n2)CC1 (stereo not drawn) [Compound 30]	–	–	–	–	–	< 0.5 µM	> 1 µM	< 8 µg/mL	> 32 µg/mL	< 8 µg/mL	> 32 µg/mL	> 32 µg/mL
CCCN(Cc1ccc(-n2ccc(NC(=O)N3CCN(C(=O)C(C)(C)N)CC3)nc2=O)cc1)[C@H]1CC[C@H](N)CC1 [Compound 131]	–	–	–	–	–	< 0.5 µM	> 1 µM	< 8 µg/mL	8 to 32 µg/mL	< 8 µg/mL	< 8 µg/mL	< 8 µg/mL
CC(C)(N)C(=O)N1CCN(C(=O)Nc2ccn(-c3ccc(C(N)C(=O)NC4CNC4)cc3)c(=O)n2)CC1 (stereo not drawn) [Compound 145]	–	–	–	–	–	0.5 to 1 µM	> 1 µM	> 32 µg/mL	> 32 µg/mL	> 32 µg/mL	> 32 µg/mL	> 32 µg/mL
CCN(Cc1ccc(-n2ccc(NC(=O)N3CCN(C(=O)C(C)(C)N)CC3)nc2=O)cc1C)C1CCC(N)CC1 (stereo not drawn) [Compound 285]	< 8 µg/mL	8 to 32 µg/mL	< 8 µg/mL	< 8 µg/mL	< 8 µg/mL	< 0.5 µM	> 1 µM	–	–	–	–	–
CN(Cc1ccc(-n2ccc(NC(=O)N3CCN(C(=O)[C@@](C)(N)CO)CC3)nc2=O)cc1)C1CCC(N)CC1 (stereo partly drawn) [Compound 286]	< 8 µg/mL	> 32 µg/mL	< 8 µg/mL	> 32 µg/mL	< 8 µg/mL	< 0.5 µM	> 1 µM	–	–	–	–	–
